Compound | melting point
O=[N+]([O-])OCCNC(=S)Cc1ccccc1 | 63 to 65 °C
CN(C)C1(c2ccccc2)CCC(=CC(=O)NCCc2ccccc2)CC1 (stereo unspecified) | 153 to 155 °C
Cc1ncn(Nc2cccc(Cl)c2)c1-c1cccc(Br)c1 | 164 °C
CS(=O)c1ccc(COS(C)(=O)=O)cc1 (stereo unspecified) | 63 to 65 °C
CC1(C)CC(C(O)CNc2nc(NCC(O)C3CC(C)(C)NC(C)(C)C3)nc(NCC(O)C3CC(C)(C)NC(C)(C)C3)n2)CC(C)(C)N1 (stereo unspecified) | 176 to 178 °C
FC(F)(F)C1(c2cc(Cl)cc(Cl)c2)CC(c2ccc(Br)cc2)=NO1 (stereo unspecified) | 122 to 124 °C
Nc1ccc2sc(-c3cccnc3)nc2c1 | 189 to 196 °C
NS(=O)(=O)c1cc2[nH]c(C(F)F)nc2cc1Cl | 233 to 235 °C
Cc1cccc(NC(=O)NCC(=O)N(CC(=O)N(C)c2ccc(F)cc2)c2ccccc2)c1 | 135 °C
CN(C)C(=O)c1ccc(NC=O)cc1S(N)(=O)=O | 192 to 193 °C
CC(C)(C)SC[C@@H]1NC(=O)[C@@H](CSSC[C@@H]2NC(=O)[C@@H](CSC(C)(C)C)NC2=O)NC1=O | 278 °C
O=C(O)c1oc2ccc(Cl)cc2c1-c1ccccc1C(F)(F)F | 71 to 72 °C
COC1(c2cc(F)cc(Sc3ccc(C(C)=O)cc3)c2)CCOCC1 | 141 °C
CSc1ncncc1C1c2cc(C#N)ccc2CC1(C)C (stereo unspecified) | 157 to 158 °C
C=CC(=O)N1CC(c2ccccc2)c2ccccc21 (stereo unspecified) | 77 to 78 °C
COc1cccc2c1CCCC2(O)CN (stereo unspecified) | 129 to 130 °C
CC1=CC(=O)c2cc(O)ccc2C1=O | 175 °C
N[C@@H](Cc1ccc(C(F)(F)F)cc1)[C@H](O)c1ccc(F)c(F)c1 (racemic) | 99 to 100 °C
O=C1Nc2ccc(Br)cc2C(c2ccccc2)=NC1O (stereo unspecified) | 190 to 192 °C
Fc1cccc(F)c1Cn1c(-c2c(F)cccc2F)nc2c(CCl)cccc21 | 143 to 144 °C
CCCCCCCCCCCCCCOC(=O)CCCCc1cc(O)c(O)c([N+](=O)[O-])c1 | 46 to 47 °C
COc1ccc(C(=O)O)cc1NC(=O)[C@H](CCCNC(=N)N[N+](=O)[O-])NC(=O)OCc1ccccc1 | 208 to 209 °C

Compound | melting point
CS(=O)(=O)c1ccc(-n2nc(CO)cc2-c2ccc(-c3ccco3)cc2)cc1 | 176 °C
COC(=O)[C@H](O)Cc1ccccc1 | 46 to 47 °C
CC1(c2ccc(C#N)cc2)Cc2cc(O)c(Cl)c(Cl)c2C1=O (stereo unspecified) | 189 to 196 °C
CSC[C@H](Nc1cc(F)ccc1[N+](=O)[O-])C(=O)O | 147 °C
C[C@H](NC(=O)OC(C)(C)C)C(=O)ON1C(=O)CCC1=O | 164 °C
CS(=O)(=O)Oc1ccc([C@@H]2CCNC(=O)[C@H]2c2ccccc2)cc1 (relative stereo) | 199 °C
COC[C@H](Cc1ccccc1)NC(=O)[C@@H](CC(=O)O)n1ccc(-c2ccc(-c3ccccc3)cc2)c1 | 247 °C
COc1cc(C=O)ccc1OCC1CO1 (stereo unspecified) | 56 to 58 °C
O=c1cc(Oc2ccccc2)c2cc(C(c3ccc(Cl)cc3)n3ccnc3)ccc2[nH]1 (stereo unspecified) | 233 °C
COc1cc(Sc2cc(F)cc(C3(OC)CCOCC3)c2)ccc1/C(C)=N/O | 155 °C
O=C(Nc1ccc(O)cc1)c1ccc(O)cc1 | 180 to 185 °C
CC1(C)Oc2ccc(-c3c(O)c(=O)c3=O)cc2[C@@H](N2Cc3ccccc3C2=O)[C@@H]1O (relative stereo) | > 250 °C
Cn1cc(CS(C)(=O)=O)c(=O)c2sccc21 | 220 to 223 °C
NCc1nnc2n1-c1ccc(Cl)cc1C(c1ccccc1F)=CC2 | 188 to 190 °C
c1ccc2cc(CSCc3ccc4ccccc4c3)ccc2c1 | 119 to 121 °C
Fc1cnccc1Nn1ccc2cc(OCc3ccccc3)ccc21 | 140 °C
COC(=O)c1cc([N+](=O)[O-])c[nH]1 | 196 to 197 °C
O=C(O)CCCC/C=C(\c1ccc(-c2nc(C(=O)NCCCCCOc3ccccc3)co2)cc1)c1cccnc1 | 42 to 48 °C
CC(C)NC(Nc1cc(C(F)(F)F)cc(C(F)(F)F)c1)=C(C#N)S(C)(=O)=O | 188 to 191 °C
O=C(O)CCC(=NO)c1ccc(-c2ccc(Cl)c(Cl)c2)cc1 | 166 °C
O=S(=O)(Nc1cccc(CCOCc2ccc(-c3ccc(Cl)cc3)cc2)c1)C(F)(F)F | 69 to 70 °C
O=C1N[C@H](Cc2ccc(CC(F)(F)C(F)(F)F)cc2)[C@H](c2cccc(Cl)c2)O1 (racemic) | 137 to 138 °C

Compound | melting point
CC(CCC(N)=S)N1C(=O)c2ccccc2C1=O (stereo unspecified) | 143 to 146 °C
CC(C)(C)NC(=O)CN1C(=O)[C@@H](CNC(=O)Nc2cccc(Cl)c2)C[C@H](c2ccccc2)c2ccccc21 | 156 to 170 °C
CC(C)[C@H]1C(C(F)(F)F)OC(=O)N1Cc1ccccc1 (stereo partly specified) | 92 to 93 °C
CCCCCCCCCCCCCCC(O)=S | 60 to 62 °C
C#Cc1cccc(-c2cccnc2F)c1 | 45 to 47 °C
CCCCc1c[nH]cn1 | 42 to 45 °C
NCc1ccc2sc3ccccc3c(=O)c2c1 | 134 to 136 °C
Cc1ccc(-c2nc(CCCOS(=O)(=O)c3ccc(C)cc3)c(C(F)(F)F)o2)cc1 | 57 to 58 °C
NS(=O)(=O)c1ccc(S(=O)(=O)CC(O)CO)cc1 (stereo unspecified) | 140 to 147 °C
COC(=O)[C@H](Cc1ccccc1)NC(=O)N(Cc1ccccc1)NC(=O)OC(C)(C)C | 71 to 73 °C
CCCCc1nc(I)c(CO)[nH]1 | 166 °C
CN1Cc2c(Br)ncn2-c2ccccc2C1=O | 196 to 198 °C
CC(C)OC(=O)C(C)(C)c1cn2nc(Cl)ccc2n1 | 100 to 101 °C
CC(=O)NC(Cc1ccccc1)C(=O)Nc1c(C(C)C)cccc1C(C)C (stereo unspecified) | 228 to 229 °C
O=[N+]([O-])c1ccc(-c2ncnn2-c2ccc(Br)cc2)cc1 | 142 to 144 °C
O=C1NCCc2[nH]c3ccc(F)cc3c21 | 242 to 245 °C
CCOc1nc(Br)cnc1N | 84 °C
CCCN(CCC)C1Cc2c[nH]c3ccc(C(C)=O)c(c23)C1 (stereo unspecified) | 148 to 150 °C
Clc1nnc(C(Cl)(Cl)Cl)s1 | 41 °C
O=[N+]([O-])c1ccc(-n2ccnc2SCc2ccccc2N2CCOCC2)nc1 | 199 to 202 °C
O=C(O)c1cn(-c2ccc(F)cc2F)c2cc(Cl)c(F)cc2c1=O | 90 to 92 °C

Continued, values first:

melting point | Compound
109 to 112 °C | O=C(NN=Cc1ccc2cc(OC(=O)c3ccc([N+](=O)[O-])o3)ccc2c1)OCc1ccccc1
169 to 171 °C | CCOC(=O)C1CC(=O)C(N=Nc2ccc(Br)cc2)=C(O)C1 (stereo unspecified)
> 200 °C | CCCN1CCCC2Cc3nc(NC(C)=O)sc3CC21 (stereo unspecified)
183 to 184 °C | CC(C)(C)OC(=O)N1CCc2c(n(CCO)c3c(Cl)cc(Cl)cc23)CC1
232 to 233 °C | CCOC(=O)C1=C(C)NC(C)=C(C(=O)OCC)C1c1ccccc1S(C)=O (stereo unspecified)
73 to 83 °C | COc1ccc(COC(=O)c2nc(-c3ccc(Cl)c(OC)c3F)cc(N)c2Cl)cc1
119 to 120 °C | CN(C)CCOC(=O)c1cnn2c(-c3cccc(C(F)(F)F)c3)ccnc12
186 to 189 °C | CCCCCOC(=O)C1=C(C)NC(C)=C(C(=O)NC(C)C)C1c1ccccc1[N+](=O)[O-] (stereo unspecified)
286 °C | CN1CCN(c2cc3c(cc2Cl)c(=O)c(C(=O)O)cn3C)CC1
228 to 231 °C | FC(F)(F)c1cccnc1N1CCN(c2nc3ccc(Cl)cc3[nH]2)CC1
325 to 332 °C | Nc1ncc2cc(-c3c(Cl)cccc3Cl)c(N)nc2n1
229 to 230 °C | Cc1cc(Cc2n[nH]c(=O)c3ccccc23)cc(C)n1
79 to 81 °C | COC(=O)c1cc(C(O)CN(C)C)ccc1OCc1ccccc1 (stereo unspecified)
101 to 103 °C | CCON=C(CC)C1=C(O)CC(c2ccc3c(c2)N(COC)C(=O)CO3)CC1=O (stereo unspecified)
153 to 155 °C | O=c1[nH]c2ccc(S(=O)CCN3CCC(O)(Cc4ccc(F)cc4)CC3)cc2o1 (stereo unspecified)
121 to 122 °C | COc1ccc2c(n1)CC(=O)N2CCCO
91 to 93 °C | CCOC(=O)C(OS(N)(=O)=O)c1ccccc1 (stereo unspecified)
> 270 °C | CC1(C)CCC2=C(C1=O)C(c1ccc(F)c(Br)c1)C1=C(CCS1)N2 (stereo unspecified)

melting point | Compound
125 to 135 °C | Cc1cccc(-c2ccccc2)c1C(=O)c1sc(Nc2ccc(N3CCOCC3)cc2)nc1N
225 to 226 °C | COc1cccc(Nc2nc(N)nc3[nH]c4ccccc4c23)c1
229 to 233 °C | CN(C)CCS(=O)(=O)NC(=O)CCn1c2ccc(O)cc2c2c3c(c(-c4ccccc4Cl)cc21)C(=O)NC3=O
141 to 143 °C | CCNC(=O)C(C)(Cc1cc2ccccc2s1)C(N)=O (stereo unspecified)
72.5 to 74 °C | Cc1c(C)c2c(c(C)c1OCc1ccccc1)CC[C@@](C)(CC(=O)CC(=O)OCc1ccccc1)O2
195 to 198 °C | Cc1c(N2CCC(N)C(C)(C)C2)c(F)cc2c(=O)c(C(=O)O)cn(C3CC3)c12 (stereo unspecified)
156 °C | COc1ccc2c(C(=O)Nc3ccc(CN4CCN(C)CC4)c(C(F)(F)F)c3)nsc2c1
178 to 186 °C | Oc1ccc2c(c1)CCCC(c1ccccc1)=C2c1ccc(OCCCCCSCc2ccccc2)cc1
88 to 90 °C | CCOC(=O)c1c(-c2ccccc2)c(-c2ccc(F)cc2)c(C=O)n1C(C)C
186 to 188 °C | CC1NC(=O)NN=C1c1ccc(OCC(=O)NCCN2CCN(C(=O)c3ccc(Cl)cc3)CC2)c(Cl)c1 (stereo unspecified)
185 °C | O=C(/C=C/c1cccc(S(=O)(=O)N2CCN(Cc3ccccc3)CC2)c1)NO
119 to 122 °C | Nc1nc2c(s1)CC(NC(=O)CNC(=O)[C@@H](Cc1ccccc1)NS(=O)(=O)Cc1ccccc1)CC2 (stereo partly specified)
175 °C | O=C1c2ccccc2CN1CCN1CCC(Cc2c[nH]c3ccc(F)cc23)CC1
148 to 150 °C | COC(=O)[C@@H]1C(=O)c2cc(OCc3ccccc3)ccc2[C@H]1c1ccc2c(c1)OCO2 (racemic)
223 to 225 °C | CCCn1c(COCC)nc2c(N)nc3ccc(OCC(=O)N4CCS(=O)(=O)CC4)cc3c21
117 to 118 °C | Cc1cc(OCC(F)(F)F)c(NC(=O)CN2CCN(CCO)CC2)c(OCC(F)(F)F)n1
195 to 196 °C | COc1c(CO)n(C)c(=O)c2ccc(Cl)cc12
251 to 253 °C | COc1ccc(NC(=O)C2=C(O)c3ccccc3S(=O)(=O)N2C)c(=O)cc1

— a melting point compilation (Tetko et al.; mined from patent text by program, amines drawn as free bases though some values may be those of a salt)
